Reference: ChEMBL document CHEMBL1125447, “Phenylmorphans and analogues: opioid receptor subtype selectivity and effect of conformation on activity” (J Med Chem, 1992)

Key:
Mu-type opioid receptor [1] = biological target: T1, Mu-type opioid receptor (Bos taurus, UniProt P79350); test: Binding affinity towards opioid receptor mu 1
Mu-type opioid receptor [2] = biological target: T1, Mu-type opioid receptor; test: Binding affinity towards opioid receptor mu 2
[3] = biological target: Kappa-type opioid receptor (Cavia porcellus, UniProt P41144); test: Binding affinity towards opioid receptor kappa 1
Chain of Kappa-type opioid receptor (P41144 whole entry): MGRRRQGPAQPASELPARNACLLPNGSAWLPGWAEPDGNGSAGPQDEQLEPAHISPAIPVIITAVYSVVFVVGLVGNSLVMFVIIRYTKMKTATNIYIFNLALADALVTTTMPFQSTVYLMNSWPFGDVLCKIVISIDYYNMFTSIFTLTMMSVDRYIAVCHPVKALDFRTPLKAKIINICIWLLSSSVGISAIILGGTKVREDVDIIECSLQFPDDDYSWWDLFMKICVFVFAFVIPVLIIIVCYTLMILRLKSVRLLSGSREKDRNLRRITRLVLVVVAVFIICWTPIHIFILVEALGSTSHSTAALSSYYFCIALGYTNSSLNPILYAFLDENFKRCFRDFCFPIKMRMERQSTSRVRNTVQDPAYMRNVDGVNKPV

Mus musculus = test: Antinociceptive activity displayed after pretreatment with selective opioid antagonist beta-FNA([…], sc); assay type: functional

T1 sequence (P79350 whole entry): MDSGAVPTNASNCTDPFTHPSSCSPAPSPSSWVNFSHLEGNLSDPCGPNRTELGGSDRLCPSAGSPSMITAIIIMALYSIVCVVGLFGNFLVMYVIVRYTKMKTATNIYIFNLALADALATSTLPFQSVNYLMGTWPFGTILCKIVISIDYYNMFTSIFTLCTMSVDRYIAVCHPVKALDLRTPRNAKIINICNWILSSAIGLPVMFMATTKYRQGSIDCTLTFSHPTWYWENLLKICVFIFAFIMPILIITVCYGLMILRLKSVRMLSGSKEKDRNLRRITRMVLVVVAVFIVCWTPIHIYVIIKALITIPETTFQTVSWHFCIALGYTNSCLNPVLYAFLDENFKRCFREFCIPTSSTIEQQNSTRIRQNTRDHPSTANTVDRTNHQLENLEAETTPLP

| SMILES | Ki (Mu-type opioid receptor [1]) | Ki (Mu-type opioid receptor [2]) | Ki [3] | Animals (Mus musculus) |
| --- | --- | --- | --- | --- |
| CC1(C)SSC(C)(C)[C@@H](NC(=O)[C@@H](N)Cc2ccc(O)cc2)C(=O)NCC(=O)N[C@@H](Cc2ccccc2)C(=O)N[C@H]1C(=O)O | 82 nM | 460 nM |  |  |
| C[C@@H]1C2CCCC1(c1cccc(O)c1)CCN2C (mixture of isomers) | 46 nM | 190 nM | 70 nM |  |
| CN1CCC2(c3cccc(O)c3)CCCC1[C@H]2O (mixture of isomers) | 8.8 nM | 28 nM | 110 nM |  |
| CN1CCC2(c3cccc(O)c3)CCCC1[C@@H]2O (mixture of isomers) | 75 nM | > 275 nM | > 500 nM |  |
| CN1CCC2(c3cccc(O)c3)CCCC1C2 (single isomer, unassigned; (+)) | 3.4 nM | 19 nM | 98 nM | 0% |
| C[C@@H]1C2CCCC1(c1cccc(O)c1)CCN2C (single isomer, unassigned; (+)) | 140 nM | > 600 nM | 89 nM |  |
| CN1CCC2(c3cccc(O)c3)CCCC1C2 (single isomer, unassigned; (-)) | 13 nM | 63 nM | 200 nM |  |
| C[C@@H]1C2CCCC1(c1cccc(O)c1)CCN2C (single isomer, unassigned; (-)) | 18 nM | 50 nM | 49 nM |  |
